From patent publication US9427482B2, “Agents for clearing biomolecules from circulation” (KONINKLIJKE PHILIPS N.V., priority 2010, dated 2016)

System: LS174T xenografts
Experiment: Biodistribution, blood kinetics and excretion of CC49-TCO-18 pretargeted ^177Lu-tetrazine 15 (Example 12)
Format: in vivo, mice
Experimental: Groups of 4 mice bearing LS174T xenografts (70-100 mm^3) were injected either with directly labeled ^177Lu-DOTA-CC49 (100 μg/100 μl, ca. 0.5 MBq per mouse) or with CC49-TCO-18 pretargeted ^177Lu-tetrazine 15 (100 μg/100 μl CC49-TCO-18 followed by two 160 μg/100 μl doses of galactose-MSA-tetrazine 12 at 30 and 48 hours and by 8.52 μg/80 μl ^177Lu-tetrazine 15, 0.8-1.2 MBq per mouse, containing 100 μg gentisic acid). One group of mice injected with ^177Lu-DOTA-CC49 and one injected with pretargeted ^177Lu-tetrazine were used to evaluate the early blood distribution of the two tracers by withdrawing blood samples from the vena saphena at selected time points (2, 30, and 60 min for ^177Lu-DOTA-CC49 and 2, 5, 10, 20, 30, and 45 min for pretargeted ^177Lu-tetrazine) (FIG. 15). These two groups of mice were then sacrificed 3 h and 1 h after the injection of ^177Lu-DOTA-CC49 and ^177Lu-tetrazine, respectively. All other groups of mice were sacrificed at various time points up to 7 days post tracer injection. After sacrifice, blood was withdrawn by heart puncture and selected organs and tissues were harvested and blotted dry. The blood samples and tissues were weighed, added with 1 mL PBS and the radioactivity was counted in a gamma counter along with standards to determine the % ID/g and % ID (Tables 7-8). Two additional groups of tumor bearing mice were used for excretion profiles (FIG. 16). The mice injected with ^177Lu-DOTA-CC49 were housed in filtered caging units and at various time points the bedding was counted in a gamma counter along with standards. The other group of mice was injected with ^177Lu-tetrazine at higher specific activity (ca. 12 MBq/8.52 μg tetrazine per mouse) and whole body clearance was monitored by measuring the animals in a dose calibrator at various time points.

What does the source list for `O=C([O-])CN1CCN(CC(=O)[O-])CCN(CC(=O)NCCOCCOCCOCCOCCOCCOCCOCCOCCOCCOCCOCCNC(=O)CCCC(=O)Nc2ccc(-c3nnc(-c4ccccn4)nn3)nc2)CCN(CC(=O)[O-])CC1.[177Lu+3]` [^177Lu-tetrazine]?
biodistribution bladder (1 hours): 2.21 ± 1.15 % ID/g; biodistribution blood (1 hours): 0.42 ± 0.20 % ID/g; biodistribution bone (1 hours): 1.08 ± 1.34 % ID/g; biodistribution brain (1 hours): 0.03 ± 0.03 % ID/g; biodistribution heart (1 hours): 0.16 ± 0.05 % ID/g; biodistribution kidney (1 hours): 2.38 ± 0.55 % ID/g; biodistribution lg. intestine (1 hours): 0.38 ± 0.11 % ID; biodistribution liver (1 hours): 0.29 ± 0.08 % ID/g; biodistribution lung (1 hours): 0.54 ± 0.15 % ID/g; biodistribution muscle (1 hours): 0.23 ± 0.21 % ID/g; biodistribution ovaries (1 hours): 0.57 ± 0.37 % ID/g; biodistribution sm. intestine (1 hours): 0.16 ± 0.03 % ID; biodistribution spleen (1 hours): 0.17 ± 0.04 % ID/g; biodistribution stomach (1 hours): 0.10 ± 0.10 % ID; biodistribution tumor (1 hours): 4.71 ± 1.13 % ID/g; biodistribution uterus (1 hours): 2.80 ± 1.64 % ID/g; biodistribution bladder (3 hours): 0.85 ± 0.64 % ID/g; biodistribution blood (3 hours): 0.03 ± 0.00 % ID/g; biodistribution bone (3 hours): 0.17 ± 0.19 % ID/g; biodistribution brain (3 hours): 0.00 ± 0.00 % ID/g; biodistribution heart (3 hours): 0.04 ± 0.00 % ID/g; biodistribution kidney (3 hours): 1.58 ± 0.14 % ID/g; biodistribution lg. intestine (3 hours): 0.15 ± 0.04 % ID; biodistribution liver (3 hours): 0.18 ± 0.02 % ID/g; biodistribution lung (3 hours): 0.21 ± 0.03 % ID/g; biodistribution muscle (3 hours): 0.05 ± 0.03 % ID/g; biodistribution ovaries (3 hours): 0.21 ± 0.19 % ID/g; biodistribution sm. intestine (3 hours): 0.22 ± 0.07 % ID; biodistribution spleen (3 hours): 0.09 ± 0.01 % ID/g; biodistribution stomach (3 hours): 0.02 ± 0.01 % ID; biodistribution tumor (3 hours): 5.38 ± 0.48 % ID/g; biodistribution uterus (3 hours): 0.35 ± 0.42 % ID/g; injected activity excreted in the urine (3 hours post injection): over 95%; tumor-to-blood ratio (3 hours post injection): ~200; biodistribution bladder (6 hours): 0.20 ± 0.08 % ID/g; biodistribution blood (6 hours): 0.02 ± 0.00 % ID/g; biodistribution bone (6 hours): 0.03 ± 0.00 % ID/g; biodistribution brain (6 hours): 0.00 ± 0.00 % ID/g; biodistribution heart (6 hours): 0.03 ± 0.01 % ID/g; biodistribution kidney (6 hours): 1.09 ± 0.18 % ID/g; biodistribution lg. intestine (6 hours): 0.05 ± 0.01 % ID; biodistribution liver (6 hours): 0.15 ± 0.01 % ID/g; biodistribution lung (6 hours): 0.11 ± 0.02 % ID/g; biodistribution muscle (6 hours): 0.02 ± 0.00 % ID/g; biodistribution ovaries (6 hours): 0.09 ± 0.02 % ID/g; biodistribution sm. intestine (6 hours): 0.38 ± 0.26 % ID; biodistribution spleen (6 hours): 0.07 ± 0.01 % ID/g; biodistribution stomach (6 hours): 0.01 ± 0.01 % ID; biodistribution tumor (6 hours): 4.53 ± 1.69 % ID/g; biodistribution uterus (6 hours): 0.10 ± 0.04 % ID/g; biodistribution bladder (1 day): 0.20 ± 0.06 % ID/g; biodistribution blood (1 day): 0.01 ± 0.00 % ID/g; biodistribution bone (1 day): 0.03 ± 0.01 % ID/g; biodistribution brain (1 day): 0.00 ± 0.00 % ID/g; biodistribution heart (1 day): 0.03 ± 0.00 % ID/g; biodistribution kidney (1 day): 1.01 ± 0.13 % ID/g; biodistribution lg. intestine (1 day): 0.06 ± 0.06 % ID; biodistribution liver (1 day): 0.13 ± 0.02 % ID/g; biodistribution lung (1 day): 0.10 ± 0.01 % ID/g; biodistribution muscle (1 day): 0.02 ± 0.00 % ID/g; biodistribution ovaries (1 day): 0.08 ± 0.03 % ID/g; biodistribution sm. intestine (1 day): 0.09 ± 0.05 % ID; biodistribution spleen (1 day): 0.07 ± 0.01 % ID/g; biodistribution stomach (1 day): 0.04 ± 0.05 % ID; biodistribution tumor (1 day): 3.83 ± 0.95 % ID/g; biodistribution uterus (1 day): 0.09 ± 0.02 % ID/g; biodistribution bladder (2 days): 0.12 ± 0.07 % ID/g; biodistribution blood (2 days): 0.01 ± 0.00 % ID/g; biodistribution bone (2 days): 0.02 ± 0.00 % ID/g; biodistribution brain (2 days): 0.00 ± 0.00 % ID/g; biodistribution heart (2 days): 0.03 ± 0.01 % ID/g; biodistribution kidney (2 days): 0.49 ± 0.07 % ID/g; biodistribution lg. intestine (2 days): 0.07 ± 0.08 % ID; biodistribution liver (2 days): 0.11 ± 0.02 % ID/g; biodistribution lung (2 days): 0.08 ± 0.03 % ID/g; biodistribution muscle (2 days): 0.02 ± 0.01 % ID/g; biodistribution ovaries (2 days): 0.10 ± 0.06 % ID/g; biodistribution sm. intestine (2 days): 0.06 ± 0.06 % ID; biodistribution spleen (2 days): 0.07 ± 0.01 % ID/g; biodistribution stomach (2 days): 0.01 ± 0.01 % ID; biodistribution tumor (2 days): 3.15 ± 1.32 % ID/g; biodistribution uterus (2 days): 0.12 ± 0.09 % ID/g; biodistribution bladder (4 days): 0.13 ± 0.04 % ID/g; biodistribution blood (4 days): 0.00 ± 0.00 % ID/g; biodistribution bone (4 days): 0.02 ± 0.01 % ID/g; biodistribution brain (4 days): 0.00 ± 0.00 % ID/g; biodistribution heart (4 days): 0.02 ± 0.00 % ID/g; biodistribution kidney (4 days): 0.34 ± 0.02 % ID/g; biodistribution lg. intestine (4 days): 0.03 ± 0.02 % ID; biodistribution liver (4 days): 0.14 ± 0.02 % ID/g; biodistribution lung (4 days): 0.06 ± 0.01 % ID/g; biodistribution muscle (4 days): 0.01 ± 0.00 % ID/g; biodistribution ovaries (4 days): 0.09 ± 0.02 % ID/g; biodistribution sm. intestine (4 days): 0.04 ± 0.04 % ID; biodistribution spleen (4 days): 0.07 ± 0.01 % ID/g; biodistribution stomach (4 days): 0.01 ± 0.00 % ID; biodistribution tumor (4 days): 2.06 ± 0.84 % ID/g; biodistribution uterus (4 days): 0.10 ± 0.07 % ID/g; biodistribution bladder (7 days): 0.15 ± 0.02 % ID/g; biodistribution blood (7 days): 0.00 ± 0.00 % ID/g; biodistribution bone (7 days): 0.01 ± 0.00 % ID/g; biodistribution brain (7 days): 0.00 ± 0.00 % ID/g; biodistribution heart (7 days): 0.01 ± 0.00 % ID/g; biodistribution kidney (7 days): 0.19 ± 0.04 % ID/g; biodistribution lg. intestine (7 days): 0.02 ± 0.01 % ID; biodistribution liver (7 days): 0.13 ± 0.03 % ID/g; biodistribution lung (7 days): 0.04 ± 0.01 % ID/g; biodistribution muscle (7 days): 0.01 ± 0.00 % ID/g; biodistribution ovaries (7 days): 0.08 ± 0.04 % ID/g; biodistribution sm. intestine (7 days): 0.07 ± 0.04 % ID; biodistribution spleen (7 days): 0.08 ± 0.01 % ID/g; biodistribution stomach (7 days): 0.01 ± 0.00 % ID; biodistribution tumor (7 days): 1.02 ± 0.36 % ID/g; biodistribution uterus (7 days): 0.21 ± 0.16 % ID/g; T1/2, elimination from blood (CC49-TCO pretargeted mice): 11.2 min; tumor-to-blood ratio (by the end of the experiment (7 days)): over 500
